Columns and labels:
Type in all cases: biochemical
human Akt1 = human Akt1 (Homo sapiens (Human), UniProt P31749); assay: Inhibitory effects on Akt1 kinase activity (TR-FRET, biotinylated Crosstide); details: Akt1, ATP 150 μM, pre-incubation 120 minutes at 25° C.; read-out: AKT inhibitory activity IC50
Description: Akt1 was prepared and assays of inhibitory activity of the compound according to the present invention against Akt1 kinase activity in vitro were conducted according to the method described in Biochem. J., vol. 385, pp. 399-408, 2005 and Cancer Res., vol. 68, pp. 2366-2374, 2008. In the preparation of Akt1 protein, human Akt1 tagged with the middle T antigen was expressed in an insect cell Sf9, Akt1 was prepared through affinity purification and activation by PDK1, and the resultant was stored at −80° C. until the inhibition assays of the compounds. In the inhibition assay of the compounds, Akt1 and the compound according to the present invention were subjected to pre-incubation at 25° C. for 120 minutes in a reaction buffer (15 mM Tris-HCl, pH 7.5, 0.01% Tween-20, 2 mM DTT). Subsequently, biotinylated Crosstide (biotin-[…], Millipore), MgCl2, and ATP were added as substrates at the final concentration of 500 nM, 10 mM, and 150 μM, respectively, and the reaction was allowed to proceed at 25° C. for 60 minutes. EDTA was added to the final concentration of 40 mM to terminate the reaction, a detection liquid containing the Eu-anti-phospho-Crosstide antibody (PerkinElmer) and SureLight APC-SA (PerkinElmer) at the final concentration of 0.5 nM and 62.5 nM, respectively was added, and the reaction was allowed to proceed at room temperature for 2 hours. In the end, the fluorescence levels irradiated with an excitation light of 337 nm were assayed at two different wavelength levels (i.e., 620 nm and 665 nm) using PI-HERAstar FS (BMG LABTECH) or PHERAstar (BMG LABTECH). The level of the phosphorylation reaction was determined on the basis of the ratio of fluorescence levels at two wavelength levels, and the concentration of the compound at which phosphorylation could be inhibited by 50% was defined as the IC50 level (nM) and shown in Table 2.
As reference compounds, conventional Comparative Example A (WO 2010/056563 (Example 31)) and Comparative Example B having inhibitory activity against Akt were used.

S6K1 = S6K1 (Homo sapiens (Human), UniProt P23443); assay: Inhibitory effects on S6K1 kinase activity (QSS Assist FP assay kit); details: S6K1, ATP 25 μM; read-out: S6K inhibitory activity IC50
Description: Inhibitory activity of the compound according to the present invention on S6K1 kinase activity in vitro was assayed using the QSS Assist™ FP assay kit (Carna Biosciences, Inc.).
In the inhibition assay for inhibitory activity of the compound, the test compound was diluted by serial dilution with dimethyl sulfoxide (DMSO). Subsequently, an S6K protein, a substrate peptide (final concentration: 100 nM), magnesium chloride (final concentration: 5 mM), ATP (final concentration: 25 μM), and the solution of the test compound in DMSO (final DMSO concentration: 5%) were added to the kinase reaction buffer (20 mM HEPES (pH 7.4), 2 mM dithiothreitol, 0.01% Tween-20), and the mixture was incubated at 25° C. for 30 minutes to perform the kinase reaction. The IMAP Progressive Binding Reagent diluted to 400-fold with the IMAP Progressive Binding Buffer A (Molecular Devices, LLC) was added thereto to terminate the kinase reaction. The reaction product was allowed to stand at room temperature in the dark for 120 minutes and assayed with the use of PHERAstar (BMG LABTECH; excitation wavelength: 485 nm; detection wavelength: 520 nm). The level of phosphorylation reaction was determined based on the degree of fluorescence polarization, and the concentration of the compound at which phosphorylation could be inhibited by 50% was defined as the IC50 level (nM) and shown in Table 4.

Rsk1 = Rsk1 (Homo sapiens (Human), UniProt Q15418); assay: Inhibitory effects on Rsk1 kinase activity (QSS Assist FP assay kit); details: Rsk1, ATP 30 μM; read-out: Rsk inhibitory activity IC50
Description: Inhibitory activity of the compound according to the present invention on Rsk1 kinase activity in vitro was assayed using the QSS Assist™ FP assay kit (Carna Biosciences, Inc.).
In the inhibition assay of inhibitory activity of the compound, the test compound was diluted by serial dilution with dimethyl sulfoxide (DMSO). Subsequently, an Rsk1 protein, a substrate peptide (final concentration: 100 nM), magnesium chloride (final concentration: 10 mM), ATP (final concentration: 30 μM), and the solution of the test compound in DMSO (DMSO final concentration: 5%) were added to the kinase reaction buffer (20 mM HEPES (pH 7.4), 2 mM dithiothreitol, 0.01% Tween-20), and the mixture was incubated at 25° C. for 40 minutes to perform the kinase reaction. The IMAP Progressive Binding Reagent diluted to 400-fold with the IMAP Progressive Binding Buffer A (Molecular Devices, LLC) was added to terminate the kinase reaction.

Rsk1, sequence (Q15418 whole entry): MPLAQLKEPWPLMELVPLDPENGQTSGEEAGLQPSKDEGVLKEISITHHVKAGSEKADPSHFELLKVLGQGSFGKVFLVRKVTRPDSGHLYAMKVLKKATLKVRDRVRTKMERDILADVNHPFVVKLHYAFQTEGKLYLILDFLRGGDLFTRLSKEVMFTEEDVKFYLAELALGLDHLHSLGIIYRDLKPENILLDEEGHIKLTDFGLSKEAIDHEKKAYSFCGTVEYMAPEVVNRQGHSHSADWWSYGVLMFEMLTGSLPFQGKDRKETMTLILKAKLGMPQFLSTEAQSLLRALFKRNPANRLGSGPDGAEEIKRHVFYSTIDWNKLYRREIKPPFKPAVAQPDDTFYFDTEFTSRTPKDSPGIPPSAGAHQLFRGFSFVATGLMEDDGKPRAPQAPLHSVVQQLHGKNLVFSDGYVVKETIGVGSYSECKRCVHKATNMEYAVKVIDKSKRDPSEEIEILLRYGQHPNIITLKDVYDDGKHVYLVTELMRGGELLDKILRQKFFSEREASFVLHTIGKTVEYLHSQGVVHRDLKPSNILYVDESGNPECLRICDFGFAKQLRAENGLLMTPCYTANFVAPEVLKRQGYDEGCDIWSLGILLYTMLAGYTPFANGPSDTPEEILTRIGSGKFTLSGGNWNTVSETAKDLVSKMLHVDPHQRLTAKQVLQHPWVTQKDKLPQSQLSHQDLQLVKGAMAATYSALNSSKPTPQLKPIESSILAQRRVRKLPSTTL
human Akt1, sequence (P31749 whole entry): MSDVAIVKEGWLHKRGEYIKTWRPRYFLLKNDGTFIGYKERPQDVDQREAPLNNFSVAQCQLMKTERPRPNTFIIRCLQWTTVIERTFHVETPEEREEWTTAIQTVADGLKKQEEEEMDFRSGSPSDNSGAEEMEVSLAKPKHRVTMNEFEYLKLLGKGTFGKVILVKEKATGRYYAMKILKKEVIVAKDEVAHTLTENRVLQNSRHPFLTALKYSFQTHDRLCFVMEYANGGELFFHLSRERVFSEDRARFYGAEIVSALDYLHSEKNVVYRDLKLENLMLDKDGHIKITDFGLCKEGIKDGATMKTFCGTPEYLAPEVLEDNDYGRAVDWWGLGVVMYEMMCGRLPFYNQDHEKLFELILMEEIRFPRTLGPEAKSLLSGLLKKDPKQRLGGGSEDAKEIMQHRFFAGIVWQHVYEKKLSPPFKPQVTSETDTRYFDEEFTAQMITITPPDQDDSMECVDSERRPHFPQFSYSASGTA
S6K1, sequence (P23443 whole entry): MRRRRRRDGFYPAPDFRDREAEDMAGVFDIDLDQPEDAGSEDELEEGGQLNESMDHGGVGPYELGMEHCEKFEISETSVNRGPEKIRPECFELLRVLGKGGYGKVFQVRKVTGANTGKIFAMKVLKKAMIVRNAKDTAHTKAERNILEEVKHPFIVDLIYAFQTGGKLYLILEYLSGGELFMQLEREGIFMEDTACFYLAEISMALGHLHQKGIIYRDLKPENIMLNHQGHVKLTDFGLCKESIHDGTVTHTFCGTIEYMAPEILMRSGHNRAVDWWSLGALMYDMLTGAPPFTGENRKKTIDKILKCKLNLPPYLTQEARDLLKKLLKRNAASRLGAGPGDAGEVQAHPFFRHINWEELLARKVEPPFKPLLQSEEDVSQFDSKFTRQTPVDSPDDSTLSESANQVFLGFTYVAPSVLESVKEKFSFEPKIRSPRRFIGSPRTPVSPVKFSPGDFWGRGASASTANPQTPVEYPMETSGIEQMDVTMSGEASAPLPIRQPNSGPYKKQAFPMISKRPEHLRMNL

Compound	IC50 (human Akt1)	IC50 (S6K1)	IC50 (Rsk1)
COc1cc(-c2ccc(NCCN3CCCC3)c(C3CCN(c4ncnc5c4C(C)C(=O)N5)CC3)n2)c(F)cn1 (stereo not drawn) [Compound 16, 4-(4-(5′-Fluoro-2′-methoxy-5-((2-(pyrrolidin-1-yl)ethyl)amino)-[2,4′-bipyridin]-6-yl)piperidin-1-yl)-5-methyl-5H-pyrrolo[2,3-d]pyrimidin-6(7H)-one]	1.9 nM	0.7 nM	0.8 nM
COc1cncc(-c2ccc(NCCN(C)C)c(C3CCN(c4ncnc5c4C(C)C(=O)N5)CC3)n2)c1 (stereo not drawn) [Compound 21, 4-(4-(5-((2-(Dimethylamino)ethyl)amino)-5′-methoxy-[2,3′-bipyridin]-6-yl)piperidin-1-yl)-5-methyl-5H-pyrrolo[2,3-d]pyrimidin-6(7H)-one]	4 nM	0.7 nM	1.3 nM
CC(C)NCCNc1ccc(-c2nnc(C(F)F)o2)nc1C1CCN(c2ncnc3c2C(C)(C)C(=O)N3)CC1 [Compound 31, 4-(4-(6-(5-(Difluoromethyl)-1,3,4-oxadiazol-2-yl)-3-((2-(isopropylamino)ethyl)amino)pyridin-2-yl)piperidin-1-yl)-5,5-dimethyl-5H-pyrrolo[2,3-d]pyrimidin-6(7H)-one]	7.6 nM	0.6 nM	1.8 nM
CC(C)NCCNc1ccc(-c2nnc(C(F)(F)F)o2)nc1C1CCN(c2ncnc3c2C(C)(C)C(=O)N3)CC1 [Compound 33, 4-(4-(3-((2-(Isopropylamino)ethyl)amino)-6-(5-(trifluoromethyl)-1,3,4-oxadiazol-2-yl)pyridin-2-yl)piperidin-1-yl)-5,5-dimethyl-5H-pyrrolo[2,3-d]pyrimidin-6(7H)-one]	2.5 nM	0.5 nM	1 nM
CN(CCNc1ccc(-c2nnc(C(F)(F)F)o2)nc1C1CCN(c2ncnc3c2C(C)(C)C(=O)N3)CC1)C(C)(C)C [Compound 34, 4-(4-(3-((2-(Tert-butyl(methyl)amino)ethyl)amino)-6-(5-(trifluoromethyl)-1,3,4-oxadiazol-2-yl)pyridin-2-yl)piperidin-1-yl)-5,5-dimethyl-5H-pyrrolo[2,3-d]pyrimidin-6(7H)-one]	1 nM	0.4 nM	0.9 nM
CC(C)(C)NCCNc1ccc(-c2nnc(C(F)F)s2)nc1C1CCN(c2ncnc3c2C(C)(C)C(=O)N3)CC1 [Compound 37, 4-(4-(3-((2-(Tert-butylamino)ethyl)amino)-6-(5-(difluoromethyl)-1,3,4-thiadiazol-2-yl)pyridin-2-yl)piperidin-1-yl)-5,5-dimethyl-5H-pyrrolo[2,3-d]pyrimidin-6(7H)-one]	3.3 nM	0.3 nM	0.5 nM
CC(C)NCCNc1ccc(-c2nnc(C(F)F)s2)nc1C1CCN(c2ncnc3c2C(C)(C)C(=O)N3)CC1 [Compound 39, 4-(4-(6-(5-(Difluoromethyl)-1,3,4-thiadiazol-2-yl)-3-((2-(isopropylamino)ethyl)amino)pyridin-2-yl)piperidin-1-yl)-5,5-dimethyl-5H-pyrrolo[2,3-d]pyrimidin-6(7H)-one]	4.1 nM	0.3 nM	0.6 nM
CC(C)(C)NCCNc1ccc(-c2nnc(C3CC3)s2)nc1C1CCN(c2ncnc3c2C(C)(C)C(=O)N3)CC1 [Compound 40, 4-(4-(3-((2-(Tert-butylamino)ethyl)amino)-6-(5-cyclopropyl-1,3,4-thiadiazol-2-yl)pyridin-2-yl)piperidin-1-yl)-5,5-dimethyl-5H-pyrrolo[2,3-d]pyrimidin-6(7H)-one]	3.6 nM	0.3 nM	0.6 nM
CC(C)NCCNc1ccc(-c2noc(C(F)(F)F)n2)nc1C1CCN(c2ncnc3c2C(C)(C)C(=O)N3)CC1 [Compound 42, 4-(4-(3-((2-(Isopropylamino)ethyl)amino)-6-(5-(trifluoromethyl)-1,2,4-oxadiazol-3-yl)pyridin-2-yl)piperidin-1-yl)-5,5-dimethyl-5H-pyrrolo[2,3-d]pyrimidin-6(7H)-one]	4.8 nM	0.5 nM	1.2 nM
CC(C)(C)NCCNc1ccc(-c2nc(C(F)(F)F)no2)nc1C1CCN(c2ncnc3c2C(C)(C)C(=O)N3)CC1 [Compound 43, 4-(4-(3-((2-(Tert-butylamino)ethyl)amino)-6-(3-(trifluoromethyl)-1,2,4-oxadiazol-5-yl)pyridin-2-yl)piperidin-1-yl)-5,5-dimethyl-5H-pyrrolo[2,3-d]pyrimidin-6(7H)-one]	1 nM	0.4 nM	0.4 nM

Compounds with a lower IC50 (human Akt1), results first:

IC50 (human Akt1)	IC50 (S6K1)	IC50 (Rsk1)	Compound
0.6 nM	0.7 nM	1.1 nM	CC1C(=O)Nc2ncnc(N3CCC(c4nc(-c5cccnc5F)ccc4NCCN4CCCC4)CC3)c21 (stereo not drawn) [Compound 17, 4-(4-(2′-Fluoro-5-((2-(pyrrolidin-1-yl)ethyl)amino)-[2,3′-bipyridin]-6-yl)piperidin-1-yl)-5-methyl-5H-pyrrolo[2,3-d]pyrimidin-6(7H)-one]
0.5 nM	0.8 nM	1.4 nM	CC1C(=O)Nc2ncnc(N3CCC(c4nc(-c5ccsc5)ccc4NCCN4CCCC4)CC3)c21 (stereo not drawn) [Compound 18, 5-Methyl-4-(4-(3-((2-(pyrrolidin-1-yl)ethyl)amino)-6-(thiophen-3-yl)pyridin-2-yl)piperidin-1-yl)-5H-pyrrolo[2,3-d]pyrimidin-6(7H)-one]
0.4 nM	0.5 nM	0.9 nM	CC1C(=O)Nc2ncnc(N3CCC(c4nc(-c5cncc(F)c5)ccc4NCCN4CCCC4)CC3)c21 (stereo not drawn) [Compound 19, 4-(4-(5′-Fluoro-5-((2-(pyrrolidin-1-yl)ethyl)amino)-[2,3′-bipyridin]-6-yl)piperidin-1-yl)-5-methyl-5H-pyrrolo[2,3-d]pyrimidin-6(7H)-one]
0.6 nM	0.6 nM	0.9 nM	CC1C(=O)Nc2ncnc(N3CCC(c4nc(-c5cc(C(F)(F)F)nn5C)ccc4NCCN4CCCC4)CC3)c21 (stereo not drawn) [Compound 20, 5-Methyl-4-(4-(6-(1-methyl-3-(trifluoromethyl)-1H-pyrazol-5-yl)-3-((2-(pyrrolidin-1-yl)ethyl)amino)pyridin-2-yl)piperidin-1-yl)-5H-pyrrolo[2,3-d]pyrimidin-6(7H)-one]
0.7 nM	0.4 nM	1.5 nM	CC1C(=O)Nc2ncnc(N3CCC(c4nc(-c5ccsc5)ccc4NCCN(C)C)CC3)c21 (stereo not drawn) [Compound 23, 4-(4-(3-((2-(Dimethylamino)ethyl)amino)-6-(thiophen-3-yl)pyridin-2-yl)piperidin-1-yl)-5-methyl-5H-pyrrolo[2,3-d]pyrimidin-6(7H)-one]
